The assay concerns the target T1, recombinant human CL receptor/RAMP1 (Homo sapiens, UniProt O60894+Q16602).
T1 construct: expressed in transfected cells
Put plainly: Recombinant receptor functional assay (cAMP, HTRF). The format is cell-based. Conditions: HEK 293 cells expressing human CL receptor/RAMP1; antagonism of 1.2 nM human α-CGRP-stimulated cAMP. How it is done: RECOMBINANT RECEPTOR: Human CL receptor (Genbank accession number L76380) was subcloned into the expression vector pIREShyg2 (BD Biosciences Clontech) as a 5′NheI and 3′ PmeI fragment. Human RAMP1 (Genbank accession number AJ001014) was subcloned into the expression vector pIRESpuro2 (BD Biosciences Clontech) as a 5′NheI and 3′NotI fragment. HEK 293 cells (human embryonic kidney cells; ATCC #CRL-1573) were cultured in DMEM with 4.5 g/L glucose, 1 mM sodium pyruvate and 2 mM glutamine supplemented with 10% fetal bovine serum (FBS), 100 units/mL penicillin and 100 μg/mL streptomycin, and maintained at 37° C. and 95% humidity. Cells were subcultured by treatment with 0.25% trypsin with 0.1% EDTA in HBSS. Stable cell line generation was accomplished by co-transfecting 10 μg of DNA with 30 μg Lipofectamine 2000 (Invitrogen) in 75 cm^2 flasks. CL receptor and RAMP1 expression constructs were co-transfected in equal amounts. […]
RECOMBINANT RECEPTOR FUNCTIONAL ASSAY: Cells were resuspended in DMEM/F12 (Hyclone) supplemented with 1 g/L BSA and 300 μM isobutyl-methylxanthine. […] Raw data were transformed into concentration of cAMP using a standard curve then dose response curves were plotted and inflection point (IP) values were determined.
A general note: In TR-FRET formats the signal depends on donor and acceptor labels being close together.

T1 sequence (Q16602 23-461): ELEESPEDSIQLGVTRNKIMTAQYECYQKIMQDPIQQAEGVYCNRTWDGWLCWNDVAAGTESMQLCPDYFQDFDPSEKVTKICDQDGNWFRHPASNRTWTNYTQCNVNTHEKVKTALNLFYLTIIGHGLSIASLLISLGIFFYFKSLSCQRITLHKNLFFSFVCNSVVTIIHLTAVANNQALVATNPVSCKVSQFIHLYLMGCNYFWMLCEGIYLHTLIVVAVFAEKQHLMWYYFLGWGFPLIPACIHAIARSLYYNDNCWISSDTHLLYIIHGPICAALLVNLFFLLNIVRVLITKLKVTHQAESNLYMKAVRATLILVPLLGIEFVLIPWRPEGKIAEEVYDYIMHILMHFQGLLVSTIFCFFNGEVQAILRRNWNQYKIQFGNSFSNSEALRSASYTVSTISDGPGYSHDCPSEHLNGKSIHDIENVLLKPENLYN
T1 sequence (O60894 27-148): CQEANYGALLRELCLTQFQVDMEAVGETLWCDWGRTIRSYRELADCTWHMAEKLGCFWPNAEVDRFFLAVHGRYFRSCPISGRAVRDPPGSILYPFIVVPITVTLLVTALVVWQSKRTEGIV

Broadly, the IC50 is the concentration at which inhibition is half-maximal. Turning to `C[C@@H]1[C@H](c2ccccc2)C[C@H](NC(=O)c2ccc3c(c2)CC2(C3)OC(=O)Nc3ncccc32)C(=O)N1CC(F)(F)F` (stereo partly drawn) [Example 1, N-((3S,5S,6R)-6-Methyl-2-oxo-5-phenyl-1-(2,2,2-trifluoroethyl)piperidin-3-yl)-2′-oxo-1,1′,2′,3-tetrahydrospiro[indene-2,4′-pyrido[2,3-d][1,3]oxazine]-5-carboxamide], the IC50 came out at 0.089 µM.

Source of the values: patent US20150087641A1, “HETEROCYCLIC CGRP RECEPTOR ANTAGONISTS” (Merck Sharp & Dohme Corp., priority 2012, published 2015).
